Assay results published in patent publication US20250042889A1, “3CLPRO PROTEASE INHIBITOR” (SHANGHAI QILU PHARMACEUTICAL RESEARCH AND DEVELOPMENT …, priority 2021, published 2025).

Legend:
[1] = in vivo; conditions: male, CD1, mouse; for AUC / Vd / clearance / Cmax: in vivo; for half-life: plasma
[2] = molecular target: SARS-COV-2 3CLpro/Mpro protease (Severe acute respiratory syndrome coronavirus 2 (2019-nCoV) (SARS-CoV-2), UniProt P0DTD1); test: Inhibitory effect on SARS-COV-2 3CLpro/Mpro protease by fluorescence resonance energy transfer; assay type: biochemical; conditions: activity intervals A-D, read-out: IC50 (nM), Inhibition on SARS-CoV-2 3CLpro/Mpro protease
[3] = male, CD1, mouse, in vivo, po, 10 mg/kg
[4] = Pharmacokinetics in vivo experiment in cynomolgus macaques; conditions: male, cynomolgus monkey, 10 mg/kg
Procedure: • Basic information of animals • Species: cynomolgus macaque • Grade: conventional grade • Quantity: 18 cynomolgus macaques (male) were used in the drug administration experiment. • Weight: about 2.5 to 4.5 kg • Age: 3 to 5 years old • Source: Huazhen Animal Farm, Conghua City (General Partnership)
There are 9 male cynomolgus macaques, 3 cynomolgus macaques/group, 3 groups in total. The animals were fasted for 12 hours before administration, and the test solution was administered by gavage (10 mg/kg), and the administration volume was 2.5 mL/kg.
The blood was placed on wet ice, and centrifuged at 1700 g at 4° C. for 10 min within 1.5 h after collection. After centrifugation, the plasma was taken and added into a detection tube. Plasma samples can be stored in a refrigerator below-20° C. within 2 hours after centrifugation.
WinNonlin 8.1.0.3530 was used to calculate pharmacokinetic parameters.

CNc1cncc(C(=O)N2CCC[C@@H](Nc3c(C(=O)N4CCCCC4)cc(Br)cc3[N+](=O)[O-])C2)c1 [Example 31, (R)-(5-bromo-2-((1-(5-(methylamino)nicotinoyl)piperidin-3-yl)amino)-3-nitrophenyl)(piperidin-1-yl)methanone]
AUC ([1]; iv, 1 mg/kg): 88 ng·h/mL | Vd ([1]; iv, 1 mg/kg): 1.56 L/kg | clearance ([1]; iv, 1 mg/kg): 11.6 mL/min/kg | AUC ([1]; po, 10 mg/kg): 369 ng·h/mL | Cmax ([1]; po, 10 mg/kg): 401 ng/mL | half-life ([1]; po, 10 mg/kg): 15 min | IC50 [2]: 10 to 50 nM | F [3]: 42.1% | AUC ([4]; in vivo, po): 454 ng·h/mL | Cmax ([4]; in vivo, po): 232 ng/mL | Tmax ([4]; in vivo, po): 79.8 min | half-life ([4]; plasma, cynomolgus macaque, oral administration): 29.4 min

CNc1cncc(C(=O)N2CCC[C@@H](Nc3c(C(=O)N4CCO[C@H](C)C4)cc(Br)cc3[N+](=O)[O-])C2)c1 [Example 35]
AUC ([1]; iv, 1 mg/kg): 112 ng·h/mL | Vd ([1]; iv, 1 mg/kg): 1.28 L/kg | clearance ([1]; iv, 1 mg/kg): 9.12 mL/min/kg | AUC ([1]; po, 10 mg/kg): 668 ng·h/mL | Cmax ([1]; po, 10 mg/kg): 1020 ng/mL | half-life ([1]; iv, 1 mg/kg): 8.1 min | IC50 [2]: 10 to 50 nM | F [3]: 60%

CNc1cncc(C(=O)N2CCC[C@@H](Nc3c(C(=O)N4CCCC(F)(F)C4)cc(Br)cc3[N+](=O)[O-])C2)c1 [Example 36, (R)-(5-bromo-2-((1-(5-(methylamino)nicotinoyl)piperidin-3-yl)amino)-3-nitrophenyl)(3,3-difluoropiperidin-1-yl)methanone]
AUC ([1]; iv, 1 mg/kg): 92 ng·h/mL | Vd ([1]; iv, 1 mg/kg): 1.7 L/kg | clearance ([1]; iv, 1 mg/kg): 11.2 mL/min/kg | AUC ([1]; po, 10 mg/kg): 273 ng·h/mL | Cmax ([1]; po, 10 mg/kg): 365 ng/mL | half-life ([1]; iv, 1 mg/kg): 8.16 min | IC50 [2]: 10 to 50 nM | F [3]: 29.7%

CNc1cncc(C(=O)N2CCC[C@@H](Nc3c(C(=O)N4CCOC(F)(F)C4)cc(Br)cc3[N+](=O)[O-])C2)c1 [Example 295]
AUC ([1]; iv, 1 mg/kg): 136 ng·h/mL | Vd ([1]; iv, 1 mg/kg): 1.06 L/kg | clearance ([1]; iv, 1 mg/kg): 7.4 mL/min/kg | AUC ([1]; po, 10 mg/kg): 494 ng·h/mL | Cmax ([1]; po, 10 mg/kg): 697 ng/mL | half-life ([1]; iv, 1 mg/kg): 7.62 min | half-life ([1]; po, 10 mg/kg): 11.6 min | IC50 [2]: 10 to 50 nM | F [3]: 36.3%

O=C(c1cc(Br)cc([N+](=O)[O-])c1N[C@@H]1CCCN(C(=O)[C@H]2CNCC(F)(F)C2)C1)N1CCCCC1 [Example 320]
AUC ([1]; iv, 1 mg/kg): 156 ng·h/mL | Vd ([1]; iv, 1 mg/kg): 2.1 L/kg | clearance ([1]; iv, 1 mg/kg): 6.3 mL/min/kg | AUC ([1]; po, 10 mg/kg): 280 ng·h/mL | Cmax ([1]; po, 10 mg/kg): 825 ng/mL | half-life ([1]; iv, 1 mg/kg): 21.6 min | half-life ([1]; po, 10 mg/kg): 26.2 min | IC50 [2]: 10 to 50 nM | F [3]: 27.7%

CNc1cncc(C(=O)N2C[C@H](Nc3c(C(=O)N4C[C@@H](C)O[C@@H](C)C4)cc(Br)cc3[N+](=O)[O-])C[C@@H](OC)C2)c1 [Example 422]
AUC ([1]; iv, 1 mg/kg): 102 ng·h/mL | Vd ([1]; iv, 1 mg/kg): 1.32 L/kg | clearance ([1]; iv, 1 mg/kg): 9.82 mL/min/kg | AUC ([1]; po, 10 mg/kg): 628 ng·h/mL | Cmax ([1]; po, 10 mg/kg): 725 ng/mL | half-life ([1]; iv, 1 mg/kg): 6.36 min | half-life ([1]; po, 10 mg/kg): 19.2 min | IC50 [2]: 50 to 100 nM | F [3]: 62.6%

CO[C@H]1CN(C(=O)c2cncc3[nH]nc(Cl)c23)C[C@@H]1Nc1c(C(=O)N2C[C@@H](C)O[C@@H](C)C2)cc(Br)cc1[N+](=O)[O-] [Example 444, (5-Bromo-2-(((3S,4S)-1-(3-chloro-1H-pyrazolo[3,4-c]pyridin-4-carbonyl)-4-methoxypyrrolidin-3-yl)amino)-3-nitrophenyl)((2S,6R)-2,6-dimethylmorpholinyl)methanone]
IC50 [2]: 10 to 50 nM

CNc1cncc(C(=O)N2C[C@H](Nc3c(C(=O)N4C[C@@H](C)O[C@@H](C)C4)cc(Br)cc3[N+](=O)[O-])C[C@H]2C(=O)Nc2ncc(Br)cn2)c1 [Example 445, (2S,4R)-4-((4-bromo-2-((2R,6S)-2,6-dimethylmorpholin-4-carbonyl)-6-nitrophenyl)amino)-N-(5-bromopyrimidin-2-yl)-1-(5-(methylamino)nicotinoyl) pyrrolidine-2-formamide]
IC50 [2]: 50 to 100 nM

CNc1cncc(C(=O)N2C[C@H](Nc3c(C(=O)N4C[C@@H](C)O[C@@H](C)C4)cc(Br)cc3[N+](=O)[O-])C[C@@H](OCCOC)C2)c1 [Example 446]
IC50 [2]: 10 to 50 nM

CNc1cncc(C(=O)N2C[C@H](Nc3c(C(=O)N4C[C@@H](C)O[C@@H](C)C4)cc(Br)cc3[N+](=O)[O-])C[C@H]2COC)c1 [Example 447]
IC50 [2]: 50 to 100 nM

CNc1cncc(C(=O)N2C[C@H](Nc3c(C(=O)N4C[C@@H](C)O[C@@H](C)C4)cc(Br)cc3[N+](=O)[O-])C[C@@H](O[C@@H]3CCOC3)C2)c1 [Example 448]
IC50 [2]: 10 to 50 nM

CO[C@H]1CN(C(=O)c2cncc3[nH]c(C)nc23)C[C@@H]1Nc1c(C(=O)N2C[C@@H](C)O[C@@H](C)C2)cc(Br)cc1[N+](=O)[O-] [Example 449, (5-Bromo-2-(((3S,4S)-4-methoxy-1-(2-methyl-3H-imidazol[4,5-c]pyridin-7-carbonyl)pyrrolidin-3-yl)amino)-3-nitrophenyl)((2S,6R)-2,6-dimethylmorpholinyl)methanone]
IC50 [2]: 50 to 100 nM
